# Where a SMILES comes first, the peptide text is derived from it.
# Legend:
# NEP = molecular target: T1, NEP (Rattus norvegicus, UniProt P07861); experiment: Met-enkephalin hydrolysis by rat spinal cord slices and membrane preparations, RP-HPLC analysis; format: biochemical; conditions: 10 μM; spinal cord slices; 20 min at 25° C.; Met-enkephalin 10 μM; read-out: inhibition of Met-enkephalin degradation (RP-HPLC)
# T1 construct: incubations of membrane and fresh tissue slice preparations from nervous tissues; from tissue; host or cells: rat spinal cord (dorsal zone), fresh slices or 100 000 x g membrane fraction
# T1 sequence (P07861 1-750): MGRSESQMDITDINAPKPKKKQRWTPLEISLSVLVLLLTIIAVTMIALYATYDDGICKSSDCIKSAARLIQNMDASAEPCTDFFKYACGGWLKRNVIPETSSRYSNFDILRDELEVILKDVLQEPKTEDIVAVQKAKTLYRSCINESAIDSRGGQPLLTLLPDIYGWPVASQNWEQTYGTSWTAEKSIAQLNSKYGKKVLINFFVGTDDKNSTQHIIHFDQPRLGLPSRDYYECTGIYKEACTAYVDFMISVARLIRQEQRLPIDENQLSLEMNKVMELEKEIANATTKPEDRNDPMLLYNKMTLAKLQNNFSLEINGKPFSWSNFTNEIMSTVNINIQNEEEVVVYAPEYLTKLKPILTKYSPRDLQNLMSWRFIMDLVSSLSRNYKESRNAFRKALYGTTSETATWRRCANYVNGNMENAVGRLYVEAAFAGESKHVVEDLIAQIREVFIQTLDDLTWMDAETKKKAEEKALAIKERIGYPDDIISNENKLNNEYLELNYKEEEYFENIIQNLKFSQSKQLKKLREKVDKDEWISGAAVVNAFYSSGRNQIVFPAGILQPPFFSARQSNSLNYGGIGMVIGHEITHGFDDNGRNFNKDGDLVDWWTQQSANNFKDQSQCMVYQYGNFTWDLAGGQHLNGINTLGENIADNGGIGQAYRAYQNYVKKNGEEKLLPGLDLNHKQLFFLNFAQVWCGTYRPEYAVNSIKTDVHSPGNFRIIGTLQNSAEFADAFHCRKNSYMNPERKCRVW
# Description: The organs are rapidly removed, dissected on ice, freed of nerve fibers and of adipose tissues and then washed in cold oxygenated glucose-and bicarbonate-containing Krebs Ringer (KRBG) solution, whose composition is the following: 120 mM NaCl-5 mM KCl-1.2 mM KH2PO4-27.5 mM NaHCO3-2.6 mM CaCl2-0.67 mM MgSO4-5.9 mM glucose. The slices of tissues are prepared either manually with the aid of a scalpel (1-2 mm thick), or mechanically with the aid of a “Tissue Chopper” (1 mm thick). Slices are then dispersed into reaction tubes where they are subjected to three successive washes in ice-cold oxygenated KRBG. […] The organs dissected out and washed in ice-cold KRBG are homogenized at 4° C. in 10 volumes (vol./wt.) of 50 mM Tris/HCl buffered at pH 7.2, using a Teflon-glass homogenizer (3×5 sec.). A first centrifugation of 5 min. at 1000×g and 4° C. makes it possible to remove the tissular debris and the nuclei in the pellet. A second centrifugation of the supernatant at 100 000×g and 5° C. concentrates the membrane fraction into the pellet, which will be superficially washed three times with cold Tris/HCl buffer and resuspended in fresh buffer using a Kontes homogenizer, aliquoted and stored at -80° C. while waiting to be used as enzyme source, at least until three months. For the experiments of analysis of the NEP peptidase activity, an ex vivo model using incubations of membrane and fresh tissue slice preparations from nervous tissues that are known to be appropriate for exploring NEP peptidase activity: i.e. the dorsal zone of rat spinal cord, was first developed. The metabolism rate of the NEP-sensitive peptides was measured using the both NEP substrates involved in the signaling of the nociceptive response: the neuropeptides Met-enkephalin and Substance P. […] (NEN, 12.5-25 nM) were used. The objective was to measure the NEP-specific endoproteolysis of these substrates. […] Furthermore, for studying the functional role of […] NO: 1), the reaction was carried out in the presence of the SMR1-peptide alone or combined with specific inhibitors of membrane peptidases which could inactivate the […] NO: 1) peptide by cleaving its C-terminal end: an inhibitor of carboxypeptidase […], 10 μM, Sigma) and an inhibitor of dipeptidylpeptidase IV (DPPIV inhibitor, 10 μM, Roche). […] Samples are kept at -30° C. until the measurement of their intact substrate and its metabolites content. The membrane preparations are preincubated in 50 mM Tris/HCl buffered at pH 7.2 and containing 10 μM Bestatin, at 25, 30 or 37° C. in constantly shaken water, in the presence or in the absence of NEP inhibitor. […] Samples are kept at -30° C. until the measurement of their intact substrate and its metabolites content. HPLC is a highly resolutive procedure that allows one to isolate, and detect by coupled spectrophotometer analysis, the non-radioactive peptides whose concentration is at least 1 to 10 μM. The C-18 RP-HPLC is based on the same principle as the C-18 Sep-Pak cartridge. The chromatographic analyses were used to study the hydrolysis of Met-Enkephalin, that were done on a C-18 LUNA analytical column (150×4.6 mm inner diameter, AIT) packed with 5 μm-diameter beads. […] Their identification and relative quantification (peak height) are checked by continuously monitoring the UV absorbance at 254 nm of column outflow. In first series of experiment, the slices and the membrane preparations of spinal cord tissues were incubated at 30° C. in a 1 ml final volume of KRBG, and at 37° C. in a 0.25 ml final volume of Tris/HCl 50 mM, pH 7.2, respectively.
# male Wistar/AF EOPS rats = experiment: Behavioral despair test (forced swimming); format: in vivo, rat; set-up: change of period of immobility, retest compared with test: dose or concentration left out as unconfirmed; conditions: for Immobility period, Retest / Immobility period, Test: first 5 minutes, n = 10; for Immobility period, Test: test session before any treatment
compound,measurement,setting,value
"N=C(N)NCCC[C@H](NC(=O)[C@@H]1CCCN1C(=O)[C@H](CC(N)=O)NC(=O)[C@H](Cc1c[nH]cn1)NC(=O)[C@@H](N)CCC(N)=O)C(=O)O [SMR1-QHNPR, QHNPR] (H-QHNPR-OH; N-terminus and C-terminus assumed)",inhibition at 10 µM,NEP,70%
same,"Immobility period, Retest","male Wistar/AF EOPS rats; 50 μg/kg i.v., 1440, 300, 5 min before the retest",141.20 ± 21.28
same,"Immobility period, Retest","male Wistar/AF EOPS rats; 100 μg/kg i.v., 1440, 300, 5 min before the retest",121.50 ± 17.47
same,"Immobility period, Test","male Wistar/AF EOPS rats; FG-50 group, 50 μg/kg i.v.",119.00 ± 13.79
same,"Immobility period, Test","male Wistar/AF EOPS rats; FG-100 group, 100 μg/kg i.v.",138.30 ± 11.03
same,"change of period of immobility, retest compared with test",male Wistar/AF EOPS rats; dose of 100,reduce it

# From patent US7423020B2, “Treatment of mood disorders by administration of SMR1” (Institut Pasteur, priority 2001, dated 2008)
